From patent US20090215807A1, “Novel Diazaspiroalkanes and Their Use for Treatment of CCR8 Mediated Diseases” (priority 2005, published 2009)
pIC50: −log10 of the molar value.

Legend:
[1] = target: T1, human recombinant chemokine CCR8 receptor (Homo sapiens, UniProt P51685); experiment: CCL1 SPA binding assay; settings: inhibition of 125I CCL1 binding to CCR8 membranes from transfected CHO-K1 cells
T1 construct: purchased Euroscreen ES-136-M; host or cells: CHO-K1 cells (membranes)
Protocol: 1 μl of DMSO was added to the blank control wells and 1 μl unlabeled CCL1 (300 nM) was added to background control wells. 50 μl of the SPA bead-membrane mixture was added into each well. […] Plates were then incubated at RT with shaking (700 rpm) for 90 minutes followed by 30 minutes at RT without shaking. The plate was read in a Wallac MicroBeta counter for 2 minutes/well.

[2] = Human microsomal stability assay; type: in vitro ADME; settings: human microsomes (Xenotech); human microsomes 1 mg protein/mL, compound 2.5 μM, NADPH 2 mM, pH 7.4, 37° C.; read-out: Intrinsic clearance
Protocol: Human Microsomal Stability Assay
Samples at four time-points (0, 5, 15 and 30 minutes) are withdrawn and the enzymatic reaction is terminated by protein precipitation with 1% acetic acid in acetonitrile. The incubations are performed on a thermostated plate (37° C.) placed on a Tecan worktable, and all liquid handling was performed robotically. After centrifugation of the samples, the supernatants are pooled in sets of four before they are analysed by liquid chromatography with tandem mass spectrometry detection (LC/MS/MS) using multiple reaction monitoring (MRM). Data are presented as intrinsic Clearance (CLint), μl/min/mg protein, calculated from the initial linear part of the compound disappearance curve.

T1 sequence (P51685 whole entry): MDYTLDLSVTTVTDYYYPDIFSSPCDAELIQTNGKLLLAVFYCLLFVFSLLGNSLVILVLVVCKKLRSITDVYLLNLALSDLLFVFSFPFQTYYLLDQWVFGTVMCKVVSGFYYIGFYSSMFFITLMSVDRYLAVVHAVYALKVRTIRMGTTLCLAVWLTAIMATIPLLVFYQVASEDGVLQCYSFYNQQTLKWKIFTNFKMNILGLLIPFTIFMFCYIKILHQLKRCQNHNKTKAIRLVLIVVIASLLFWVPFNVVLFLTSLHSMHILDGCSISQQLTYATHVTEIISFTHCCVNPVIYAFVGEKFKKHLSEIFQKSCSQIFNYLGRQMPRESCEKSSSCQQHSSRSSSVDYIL

pIC50 [1]	microsomal CLint at 2.5 μM [2] [µL/min/mg]	SMILES
6.71	< 10	O=C(c1cccc[n+]1[O-])N1CCC2(CCN(Cc3cccc(Oc4ccccc4)c3)CC2)CC1 [Example 1, 3-[(1-oxidopyridin-2-yl)carbonyl]-9-(3-phenoxybenzyl)-3,9-diazaspiro[5.5]undecane]
6.52	< 10	O=C(c1cc[n+]([O-])cc1)N1CCC2(CCN(Cc3cccc(Oc4ccccc4)c3)CC2)CC1 [Example 2, 3-(1-oxidoisonicotinoyl)-9-(3-phenoxybenzyl)-3,9-diazaspiro[5.5]undecane]
7.06	< 10	COc1ccccc1Oc1ccccc1CN1CCC2(CC1)CCN(C(=O)c1cccc[n+]1[O-])CC2 [Example 3, 3-[2-(2-methoxyphenoxy)benzyl]-9-[(1-oxidopyridin-2-yl)carbonyl]-3,9-diazaspiro[5.5]undecane]
6.57	< 10	COc1ccccc1Oc1ccccc1CN1CCC2(CC1)CCN(C(=O)c1ccc[n+]([O-])c1)CC2 [Example 5, 3-[2-(2-methoxyphenoxy)benzyl]-9-[(1-oxidopyridin-3-yl)carbonyl]-3,9-diazaspiro[5.5]undecane]
6.68	< 10	COc1ccccc1Oc1cccc(CN2CCC3(CC2)CCN(C(=O)c2ccc[n+]([O-])c2)CC3)c1 [Example 8, 3-[3-(2-methoxyphenoxy)benzyl]-9-[(1-oxidopyridin-3-yl)carbonyl]-3,9-diazaspiro[5.5]undecane]
–	89	COc1ccccc1Oc1ccccc1CN1CCC2(CC1)CCN(C(=O)c1ccncc1)CC2 [X, 3-isonicotinoyl-9-[2-(2-methoxyphenoxy)benzyl]-3,9-diazaspiro[5.5]undecane, reference compound]
–	183	COc1ccccc1Oc1cccc(CN2CCC3(CC2)CCN(C(=O)c2ccncc2)CC3)c1 [Y, 3-isonicotinoyl-9-[3-(2-methoxyphenoxy)benzyl]-3,9-diazaspiro[5,5]undecane, reference compound]

SMILES	pIC50 [1]	microsomal CLint at 2.5 μM [2] [µL/min/mg]
CC(C)COc1ccccc1CN1CCC2(CC1)CCN(C(=O)c1cc[n+]([O-])cc1)CC2 [A, 3-(2-isobutoxybenzyl)-9-(1-oxidoisonicotinoyl)-3,9-diazaspiro[5.5]undecane, reference compound]	5.57	–
CC(C)COc1ccccc1CN1CCC2(CC1)CCN(C(=O)c1ccc[n+]([O-])c1)CC2 [B, 3-(2-isobutoxybenzyl)-9-[(1-oxidopyridin-3-yl)carbonyl]-3,9-diazaspiro[5.5]undecane, reference compound]	5.52	–
COc1ccccc1Oc1ccccc1CN1CCC2(CC1)CCN(C(=O)c1cc[n+]([O-])cc1)CC2 [Example 4, 3-[2-(2-methoxyphenoxy)benzyl]-9-(1-oxidoisonicotinoyl)-3,9-diazaspiro[5.5]undecane]	6.93	< 10
